Data reported in ChEMBL document CHEMBL2203270, “POMA analyses as new efficient bioinformatics' platform to predict and optimise bioactivity of synthesized 3a,4-dihydro-3H-indeno[1,2-c]pyrazole-2-carboxamide/carbothioamide analogues” (Bioorg Med Chem Lett, 2012).
Values after ≈ are worked out from the molar mass of the structure shown. Active and inactive are the calls of the source. The rule behind the calls is not given here.

How the values were obtained:
Mus musculus [1] = assay: Anticonvulsant activity in mouse assessed as protection against clonic seizure at 100 mg/kg, ip measured at 0.25 hr; assay type: functional
Mus musculus [2] = assay: Neurotoxicity in mouse assessed as minimal motor impairment at 100 mg/kg, ip measured at 2 hr by rotarod test; assay type: toxicity, organism-based; parameters: dose 100 mg/kg, route intraperitoneal; conditions: in vivo
[3] = system: Human immunodeficiency virus 2; assay: Antiviral activity against HIV-2 ROD infected in MT4 cells assessed as inhibition of virus-induced cytopathicity; assay type: functional, organism-based; conditions: Human immunodeficiency virus 2, ISOLATE ROD
[4] = system: Human immunodeficiency virus 1; assay: Antiviral activity against HIV-1 3B infected in MT4 cells assessed as inhibition of virus-induced cytopathicity; assay type: functional, organism-based; conditions: Human immunodeficiency virus 1, 3B
Mus musculus [5] = assay: Neurotoxicity in mouse assessed as minimal motor impairment at 100 mg/kg, ip measured at 1 hr by rotarod test; assay type: toxicity, organism-based; parameters: dose 100 mg/kg, route intraperitoneal; conditions: in vivo
Mus musculus [6] = assay: Anticonvulsant activity in mouse assessed as protection against clonic seizure at 100 mg/kg, ip measured at 4 hr; assay type: functional, organism-based; parameters: dose 100 mg/kg
[7] = system: Human immunodeficiency virus 2; assay: Antiviral activity against HIV-2 ROD infected in MT4 cells assessed as protection against virus-induced cytopathicity relative to control; assay type: functional; conditions: Human immunodeficiency virus 2, ISOLATE ROD
[8] = Cytotoxicity against mock-infected human MT4 cells assessed as decrease in cell viability by MTT assay; assay type: cell-based
Mus musculus [9] = assay: Anticonvulsant activity in mouse assessed as protection against clonic seizure at 100 mg/kg, ip measured at 0.5 hr; assay type: functional
Mus musculus [10] = assay: Neurotoxicity in mouse assessed as minimal motor impairment at 100 mg/kg, ip measured at 0.25 hr by rotarod test; assay type: toxicity, organism-based; parameters: dose 100 mg/kg, route intraperitoneal; conditions: in vivo
Mus musculus [11] = assay: Anticonvulsant activity in mouse assessed as protection against clonic seizure at 100 mg/kg, ip measured at 1 hr; assay type: functional
Mus musculus [12] = assay: Neurotoxicity in mouse assessed as minimal motor impairment at 100 mg/kg, ip measured at 0.5 hr by rotarod test; assay type: toxicity, organism-based; parameters: dose 100 mg/kg, route intraperitoneal; conditions: in vivo
[13] = system: Human immunodeficiency virus 1; assay: Antiviral activity against HIV-1 3B infected in MT4 cells assessed as protection against virus-induced cytopathicity relative to control; assay type: functional; conditions: Human immunodeficiency virus 1, 3B
Mus musculus [14] = assay: Neurotoxicity in mouse assessed as minimal motor impairment at 100 mg/kg, ip measured at 4 hr by rotarod test; assay type: toxicity, organism-based; parameters: dose 100 mg/kg, route intraperitoneal; conditions: in vivo
Mus musculus [15] = assay: Anticonvulsant activity in mouse assessed as protection against clonic seizure at 100 mg/kg, ip measured at 2 hr; assay type: functional, organism-based; parameters: dose 100 mg/kg
Candida albicans [16] = assay: Antimicrobial activity against Candida albicans NCIM 3471 by broth dilution technique; assay type: functional
Bacillus subtilis [17] = assay: Antimicrobial activity against Bacillus subtilis NCIM 2439 by broth dilution technique; assay type: functional
Escherichia coli [18] = assay: Antimicrobial activity against Escherichia coli NCIM 5051 by broth dilution technique; assay type: functional
Aspergillus niger [19] = assay: Antimicrobial activity against Aspergillus niger NCIM 1196 by broth dilution technique; assay type: functional
Staphylococcus aureus [20] = assay: Antimicrobial activity against Staphylococcus aureus NCIM 2079 by broth dilution technique; assay type: functional
Pseudomonas aeruginosa [21] = assay: Antimicrobial activity against Pseudomonas aeruginosa ATCC 10145 by broth dilution technique; assay type: functional
Staphylococcus aureus [22] = assay: microbe, parasite or virus in culture; conditions: NCIM 2079
Description: Antimicrobial activity against Staphylococcus aureus NCIM 2079 by disc-diffusion method

Escherichia coli [23] = assay: microbe, parasite or virus in culture; conditions: NCIM 5051
Description: Antimicrobial activity against Escherichia coli NCIM 5051 by disc-diffusion method

Pseudomonas aeruginosa [24] = assay: microbe, parasite or virus in culture; conditions: ATCC 10145
Bacillus subtilis [25] = assay: Antimicrobial activity against Bacillus subtilis NCIM 2439 by disc-diffusion method; assay type: functional
Aspergillus niger [26] = assay: Antimicrobial activity against Aspergillus niger NCIM 1196 by agar diffusion method; assay type: functional
Candida albicans [27] = assay: Antimicrobial activity against Candida albicans NCIM 3471 by agar diffusion method; assay type: functional

## COc1ccc(C2C3Cc4cc(OC)c(OC)cc4C3=NN2C(=O)Nc2ccc(F)c(Cl)c2)cc1OC (configuration not stated)
Mus musculus [1]
  Activity: inactive
Mus musculus [2]
  Activity: Non-toxic
[3]
  IC50: > 223 µM
[4]
  IC50: > 223 µM
Mus musculus [5]
  Activity: Non-toxic
Mus musculus [6]
  Activity: inactive
[7]
  Emax: 38%
[8]
  CC50: 223 µM
Mus musculus [9]; route intraperitoneal
  Activity: 50%
Mus musculus [10]
  Activity: Non-toxic
Mus musculus [11]; route intraperitoneal
  Activity: 50%
Mus musculus [12]
  Activity: Non-toxic
[13]
  Emax: 12%
Mus musculus [14]
  Activity: Non-toxic
Mus musculus [15]
  Activity: inactive

## COc1cc2c(cc1OC)C1=NN(C(=O)Nc3ccc(Cl)cc3)C(c3ccc(F)cc3)C1C2 (configuration not stated)
Mus musculus [1]; route intraperitoneal
  Activity: 100%
Mus musculus [2]
  Activity: Non-toxic
[3]
  IC50: > 25.8 µM
[4]
  IC50: > 25.8 µM
Mus musculus [5]
  Activity: Non-toxic
Mus musculus [6]
  Activity: inactive
[7]
  Emax: 2%
[8]
  CC50: 25.8 µM
Mus musculus [9]; route intraperitoneal
  Activity: 100%
Mus musculus [10]
  Activity: Non-toxic
Mus musculus [11]; route intraperitoneal
  Activity: 75%
Mus musculus [12]
  Activity: Non-toxic
[13]
  Emax: 2%
Mus musculus [14]
  Activity: Non-toxic
Mus musculus [15]
  Activity: inactive

## COc1cc2c(cc1OC)C1=NN(C(N)=S)C(c3ccccc3)C1C2 (configuration not stated)
Candida albicans [16]
  MFC: > 512 µg/mL
  MIC: 128 µg/mL (≈ 362 µM)
[3]
  IC50: > 28.4 µM
[4]
  IC50: > 28.4 µM
Bacillus subtilis [17]
  MBC: > 512 µg/mL
  MIC: 256 µg/mL (≈ 724 µM)
[7]
  Emax: 12%
[8]
  CC50: 28.4 µM
Escherichia coli [18]
  MBC: > 512 µg/mL
  MIC: 128 µg/mL (≈ 362 µM)
[13]
  Emax: 2%
Aspergillus niger [19]
  MFC: > 512 µg/mL
  MIC: 128 µg/mL (≈ 362 µM)
Staphylococcus aureus [20]
  MBC: > 512 µg/mL
  MIC: 256 µg/mL (≈ 724 µM)
Pseudomonas aeruginosa [21]
  MBC: > 512 µg/mL
  MIC: 256 µg/mL (≈ 724 µM)

## COc1cc2c(cc1OC)C1=NN(C(=O)Nc3ccc(Cl)cc3)C(c3ccccc3Cl)C1C2 (configuration not stated)
Mus musculus [1]
  Activity: inactive
Mus musculus [2]
  Activity: Non-toxic
[3]
  IC50: > 22.9 µM
[4]
  IC50: > 22.9 µM
Mus musculus [5]
  Activity: Non-toxic
Mus musculus [6]
  Activity: inactive
[7]
  Emax: 2%
[8]
  CC50: 22.9 µM
Mus musculus [9]; route intraperitoneal
  Activity: 75%
Mus musculus [10]
  Activity: Non-toxic
Mus musculus [11]; route intraperitoneal
  Activity: 50%
Mus musculus [12]
  Activity: Non-toxic
[13]
  Emax: 2%
Mus musculus [14]
  Activity: Non-toxic
Mus musculus [15]
  Activity: inactive

## COc1ccc(C2C3Cc4cc(OC)c(OC)cc4C3=NN2C(N)=S)cc1OC (configuration not stated)
Candida albicans [16]
  MFC: 512 µg/mL (≈ 1240 µM)
  MIC: 16 µg/mL (≈ 38.7 µM)
[3]
  IC50: > 158 µM
[4]
  IC50: > 158 µM
Bacillus subtilis [17]
  MBC: > 512 µg/mL
  MIC: 128 µg/mL (≈ 310 µM)
[7]
  Emax: 11%
[8]
  CC50: 158 µM
Escherichia coli [18]
  MBC: > 512 µg/mL
  MIC: 64 µg/mL (≈ 155 µM)
[13]
  Emax: 4%
Aspergillus niger [19]
  MFC: 512 µg/mL (≈ 1240 µM)
  MIC: 16 µg/mL (≈ 38.7 µM)
Staphylococcus aureus [20]
  MBC: > 512 µg/mL
  MIC: 128 µg/mL (≈ 310 µM)
Pseudomonas aeruginosa [21]
  MBC: > 512 µg/mL
  MIC: 128 µg/mL (≈ 310 µM)

## COc1cc2c(cc1OC)C1=NN(C(=O)Nc3ccc(F)c(Cl)c3)C(c3ccccc3)C1C2 (configuration not stated)
Mus musculus [1]; route intraperitoneal
  Activity: 50%
Mus musculus [2]
  Activity: Non-toxic
[3]
  IC50: > 35.8 µM
[4]
  IC50: > 35.8 µM
Mus musculus [5]
  Activity: Non-toxic
Mus musculus [6]
  Activity: inactive
[7]
  Emax: 10%
[8]
  CC50: 35.8 µM
Mus musculus [9]
  Activity: inactive
Mus musculus [10]
  Activity: Non-toxic
Mus musculus [11]
  Activity: inactive
Mus musculus [12]
  Activity: Non-toxic
[13]
  Emax: 7%
Mus musculus [14]
  Activity: Non-toxic
Mus musculus [15]
  Activity: inactive

## COc1cc2c(cc1OC)C1=NN(C(N)=O)C(c3ccccc3)C1C2 (configuration not stated)
Candida albicans [16]
  MFC: > 512 µg/mL
  MIC: 128 µg/mL (≈ 379 µM)
[3]
  IC50: > 259 µM
[4]
  IC50: > 259 µM
Bacillus subtilis [17]
  MBC: > 512 µg/mL
  MIC: 256 µg/mL (≈ 759 µM)
[7]
  Emax: 11%
[8]
  CC50: 259 µM
Escherichia coli [18]
  MBC: > 512 µg/mL
  MIC: 256 µg/mL (≈ 759 µM)
[13]
  Emax: 2%
Aspergillus niger [19]
  MFC: > 512 µg/mL
  MIC: 256 µg/mL (≈ 759 µM)
Staphylococcus aureus [20]
  MBC: > 512 µg/mL
  MIC: 256 µg/mL (≈ 759 µM)
Pseudomonas aeruginosa [21]
  MBC: > 512 µg/mL
  MIC: 256 µg/mL (≈ 759 µM)

## O=C(O)c1cn(C2CC2)c2cc(N3CCNCC3)c(F)cc2c1=O [CIPROFLOXACIN]
Staphylococcus aureus [22]
  MBC: 8 µg/mL (≈ 24.1 µM)
  MIC: 4 µg/mL (≈ 12.1 µM)
Escherichia coli [23]
  MBC: 4 µg/mL (≈ 12.1 µM)
Pseudomonas aeruginosa [24]
  MBC: 8 µg/mL (≈ 24.1 µM)
  MIC: 4 µg/mL (≈ 12.1 µM)
Bacillus subtilis [25]
  MBC: 8 µg/mL (≈ 24.1 µM)
  MIC: 4 µg/mL (≈ 12.1 µM)

## COc1cc2c(cc1OC)C1=NN(C(=O)Nc3ccc(F)c(Cl)c3)C(c3ccccc3Cl)C1C2 (configuration not stated)
Mus musculus [1]; route intraperitoneal
  Activity: 75%
Mus musculus [2]
  Activity: Non-toxic
[3]
  IC50: > 11.8 µM
[4]
  IC50: > 11.8 µM
Mus musculus [5]
  Activity: Toxic
Mus musculus [6]
  Activity: inactive
[7]
  Emax: 1%
[8]
  CC50: 11.8 µM
Mus musculus [9]
  Activity: inactive
Mus musculus [10]
  Activity: Non-toxic
Mus musculus [11]
  Activity: inactive
Mus musculus [12]
  Activity: Non-toxic
[13]
  Emax: 5%
Mus musculus [14]
  Activity: Non-toxic
Mus musculus [15]
  Activity: inactive

## COc1cc2c(cc1OC)C1=NN(C(=O)Nc3ccc(F)c(Cl)c3)C(c3ccc(F)cc3)C1C2 (configuration not stated)
Mus musculus [1]
  Activity: inactive
Mus musculus [2]
  Activity: Non-toxic
[3]
  IC50: > 179 µM
[4]
  IC50: > 179 µM
Mus musculus [5]
  Activity: Non-toxic
Mus musculus [6]
  Activity: inactive
[7]
  Emax: 7%
[8]
  CC50: 179 µM
Mus musculus [9]
  Activity: inactive
Mus musculus [10]
  Activity: Non-toxic
Mus musculus [11]
  Activity: inactive
Mus musculus [12]
  Activity: Non-toxic
[13]
  Emax: 2%
Mus musculus [14]
  Activity: Non-toxic
Mus musculus [15]
  Activity: inactive

## OC(Cn1cncn1)(Cn1cncn1)c1ccc(F)cc1F [FLUCONAZOLE]
Aspergillus niger [26]
  MFC: 2 µg/mL (≈ 6.53 µM)
  MIC: 2 µg/mL (≈ 6.53 µM)
Candida albicans [27]
  MFC: 2 µg/mL (≈ 6.53 µM)
  MIC: 1 µg/mL (≈ 3.27 µM)
